# According to US8476434B2, “Protein kinase modulators and method of use” (Amgen Inc., priority 2004, dated 2013):
# Target: T1, LCK KD GST (225-509) (Homo sapiens, UniProt P06239)
# T1 construct: LCK KD GST (225-509); GST
# Assay: LCK Homogenous Time Resolved Fluorescent (HTRF) kinase assay
# Type: biochemical
# Protocol: The LCK HTRF assay begins with LCK in the presence of ATP phosphorylating the biotinylated peptide Gastrin. The reaction incubates for 90 min. To quench the assay detection reagents are added which both stop the reaction by diluting out the enzyme and chelating the metals due to the presence of EDTA. Once the detection reagents are added the assay incubates for 30 min to allow for equilibration of the detection reagents.
# Buffer conditions are as follows: 50 mM HEPES pH 7.5, 50 mM NaCl, 20 mM MgCl, 5 mM MnCl, 2 mM DTT, 0.05% BSA.
# The assay is quenched and stopped with 160 μL of detection reagent. Detection reagents are as follows: Buffer made of 50 mM Tris, pH 7.5, 100 mM NaCl, 3 mM EDTA, 0.05% BSA, 0.1% Tween20.
# The assay plate is read in either a Discovery or a RubyStar.
# T1 sequence (P06239 225-509): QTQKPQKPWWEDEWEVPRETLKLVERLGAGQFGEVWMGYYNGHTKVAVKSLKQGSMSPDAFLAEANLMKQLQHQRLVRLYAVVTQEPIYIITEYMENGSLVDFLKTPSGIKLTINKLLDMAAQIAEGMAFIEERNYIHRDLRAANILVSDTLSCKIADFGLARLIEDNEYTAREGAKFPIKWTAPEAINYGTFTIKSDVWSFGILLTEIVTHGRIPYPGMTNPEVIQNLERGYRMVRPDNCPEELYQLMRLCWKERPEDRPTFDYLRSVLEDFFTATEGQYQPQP
row,IC50,Compound
1,< 1000 nM,"CNc1cc(-c2cccnc2Oc2ccc(Cl)c(NC(=O)c3cccc(C(C)C)c3)c2)ccn1 [N-(2-chloro-5-((2′-(methylamino)-3,4′-bipyridin-2-yl)oxy)phenyl)-3-(1-methylethyl)benzamide]"
2,< 1000 nM,CNc1nccc(-c2cccnc2Oc2ccc(NC(=O)Nc3cc(C(F)(F)F)ccc3F)c3ccccc23)n1 [N-(2-fluoro-5-(trifluoromethyl)phenyl)-N′-(4-((3-(2-(methylamino)-4-pyrimidinyl)-2-pyridinyl)oxy)-1-naphthalenyl)urea]
3,< 1000 nM,"CNc1nccc(-c2cccnc2Oc2cc(C(=O)Nc3cc(C(C)(C)C)nn3-c3ccccc3)ccc2C)n1 [N-(3-(1,1-dimethylethyl)-1-phenyl-1H-pyrazol-5-yl)-4-methyl-3-((3-(2-(methylamino)-4-pyrimidinyl)-2-pyridinyl)oxy)benzamide]"
4,< 1000 nM,"CNc1ncnc(-c2cccnc2Oc2ccc(F)c(C(=O)Nc3cccc(C(C)(C)C)c3)c2)n1 [N-(3-(1,1-dimethylethyl)phenyl)-2-fluoro-5-((3-(4-(methylamino)-1,3,5-triazin-2-yl)-2-pyridinyl)oxy)benzamide]"
5,< 1000 nM,"CNc1cc(-c2cccnc2Oc2cc(NC(=O)c3cccc(C(C)C)c3)cc(C(F)(F)F)c2)ccn1 [N-(3-((2′-(methylamino)-3,4′-bipyridin-2-yl)oxy)-5-(trifluoromethyl)phenyl)-3-(1-methylethyl)benzamide]"
6,< 1000 nM,CCOc1cccc(NC(=O)c2ccc(C)c(Nc3ncccc3-c3ccncn3)c2)c1 [N-(3-(ethyloxy)phenyl)-4-methyl-3-((3-(4-pyrimidinyl)-2-pyridinyl)amino)benzamide]
7,< 1000 nM,Cc1ccc(C(=O)Nc2cccc(Cl)c2)cc1Nc1ncccc1-c1ccncn1 [N-(3-chlorophenyl)-4-methyl-3-((3-(4-pyrimidinyl)-2-pyridinyl)amino)benzamide]
8,< 1000 nM,CNc1nccc(-c2cccnc2Oc2ccc(NC(=O)Nc3cc(F)cc(C(F)(F)F)c3)cc2C)n1 [N-(3-fluoro-5-(trifluoromethyl)phenyl)-N′-(3-methyl-4-((3-(2-(methylamino)-4-pyrimidinyl)-2-pyridinyl)oxy)phenyl)urea]
9,< 1000 nM,CNc1nccc(-c2cccnc2Oc2ccc(NC(=O)Nc3cccc(F)c3)cc2C)n1 [N-(3-fluorophenyl)-N′-(3-methyl-4-((3-(2-(methylamino)-4-pyrimidinyl)-2-pyridinyl)oxy)phenyl)urea]
10,< 1000 nM,CNc1nccc(-c2cccnc2Oc2ccc(NC(=O)Nc3cc(C(F)(F)F)ccc3CN3CCN(C)CC3)cc2C)n1 [N-(3-methyl-4-((3-(2-(methylamino)-4-pyrimidinyl)-2-pyridinyl)oxy)phenyl)-N′-(2-((4-methyl-1-piperazinyl)methyl)-5-(trifluoromethyl)phenyl)urea]
11,< 1000 nM,CNc1nccc(-c2cccnc2Oc2ccc(NC(=O)Nc3cc(C4CCN(C)CC4)cc(C(F)(F)F)c3)cc2C)n1 [N-(3-methyl-4-((3-(2-(methylamino)-4-pyrimidinyl)-2-pyridinyl)oxy)phenyl)-N′-(3-(1-methyl-4-piperidinyl)-5-(trifluoromethyl)phenyl)urea]
12,< 1000 nM,O=C(Nc1cccc(C(F)(F)F)c1)Nc1ccc(Oc2ncccc2-c2ccncn2)c2ccccc12 [N-(4-((3-(4-pyrimidinyl)-2-pyridinyl)oxy)-1-naphthalenyl)-N′-(3-(trifluoromethyl)phenyl)urea]
13,< 1000 nM,"CNc1ncnc(-c2cccnc2Oc2cc(NC(=O)c3cccc(OC(F)(F)F)c3)ccc2C)n1 [N-(4-methyl-3-((3-(4-(methylamino)-1,3,5-triazin-2-yl)-2-pyridinyl)oxy)phenyl)-3-((trifluoromethyl)oxy)benzamide]"
14,< 1000 nM,"CNc1nccc(-c2cccnc2Oc2cc(C(=O)Nc3cc(C(C)(C)C)ccc3OC)ccc2C)n1 [N-(5-(1,1-dimethylethyl)-2-(methyloxy)phenyl)-4-methyl-3-((3-(2-(methylamino)-4-pyrimidinyl)-2-pyridinyl)oxy)benzamide]"
15,< 1000 nM,"CNc1nccc(-c2cccnc2Oc2ccc(NC(=O)Nc3cc(C(C)(C)C)ccc3OC)cc2C)n1 [N-(5-(1,1-dimethylethyl)-2-(methyloxy)phenyl)-N′-(3-methyl-4-((3-(2-(methylamino)-4-pyrimidinyl)-2-pyridinyl)oxy)phenyl)urea]"
16,< 1000 nM,"COc1ccc(C2CCCCC2)cc1NC(=O)c1ccc(C)c(Oc2ncccc2-c2ncnc(NCCO)n2)c1 [N-(5-cyclohexyl-2-(methyloxy)phenyl)-3-((3-(4-((2-hydroxyethyl)amino)-1,3,5-triazin-2-yl)-2-pyridinyl)oxy)-4-methylbenzamide]"
17,< 1000 nM,"CCNc1ncnc(-c2cccnc2Oc2cc(C(=O)Nc3cc(C4CCCCC4)ccc3OC)ccc2C)n1 [N-(5-cyclohexyl-2-(methyloxy)phenyl)-3-((3-(4-(ethylamino)-1,3,5-triazin-2-yl)-2-pyridinyl)oxy)-4-methylbenzamide]"
18,< 1000 nM,"CNc1cc(-c2cccnc2Oc2cc(C(=O)Nc3cc(C4CCCCC4)ccc3OC)ccc2C)ccn1 [N-(5-cyclohexyl-2-(methyloxy)phenyl)-4-methyl-3-((2′-(methylamino)-3,4′-bipyridin-2-yl)oxy)benzamide]"
19,< 1000 nM,CNc1nccc(-c2cccnc2Oc2cc(C(=O)Nc3cc(C4CCCCC4)ccc3OC)ccc2C)n1 [N-(5-cyclohexyl-2-(methyloxy)phenyl)-4-methyl-3-((3-(2-(methylamino)-4-pyrimidinyl)-2-pyridinyl)oxy)benzamide]

# The remaining lines, values behind:
row,Compound,IC50
1,"CNc1ncnc(-c2cccnc2Oc2cc(C(=O)Nc3cc(C(F)(F)F)ccc3Cl)ccc2C)n1 [N-(2-chloro-5-(trifluoromethyl)phenyl)-4-methyl-3-((3-(4-(methylamino)-1,3,5-triazin-2-yl)-2-pyridinyl)oxy)benzamide]",< 1000 nM
2,Cc1ccc(C(=O)Nc2cc(C(F)(F)F)ccc2Cl)cc1Oc1ncccc1-c1ccncn1 [N-(2-chloro-5-(trifluoromethyl)phenyl)-4-methyl-3-((3-(4-pyrimidinyl)-2-pyridinyl)oxy)benzamide],< 1000 nM
3,CNc1nccc(-c2cccnc2Oc2ccc(NC(=O)Nc3cc(C(F)(F)F)ccc3Cl)cc2C)n1 [N-(2-chloro-5-(trifluoromethyl)phenyl)-N′-(3-methyl-4-((3-(2-(methylamino)-4-pyrimidinyl)-2-pyridinyl)oxy)phenyl)urea],< 1000 nM
4,"Cc1ccc(C(=O)Nc2cc(C(C)(C)C)nn2-c2ccccc2)cc1Oc1ncccc1-c1ccncn1 [N-(3-(1,1-dimethylethyl)-1-phenyl-1H-pyrazol-5-yl)-4-methyl-3-((3-(4-pyrimidinyl)-2-pyridinyl)oxy)benzamide]",< 1000 nM
5,"CNc1ncnc(-c2cccnc2Oc2cccc(NC(=O)c3cccc(C(C)C)c3)c2)n1 [N-(3-((3-(4-(methylamino)-1,3,5-triazin-2-yl)-2-pyridinyl)oxy)phenyl)-3-(1-methylethyl)benzamide]",< 1000 nM
6,CNc1nccc(-c2cccnc2Oc2ccc(NC(=O)Nc3cccc(Br)c3)cc2C)n1 [N-(3-bromophenyl)-N′-(3-methyl-4-((3-(2-(methylamino)-4-pyrimidinyl)-2-pyridinyl)oxy)phenyl)urea],< 1000 nM
7,CNc1nccc(-c2cccnc2Oc2ccc(F)c(C(=O)Nc3cc(C(F)(F)F)cc(Cl)c3N(C)CCCN(C)C)c2)n1 [N-(3-chloro-2-((3-(dimethylamino)propyl)(methyl)amino)-5-(trifluoromethyl)phenyl)-2-fluoro-5-((3-(2-(methylamino)-4-pyrimidinyl)-2-pyridinyl)oxy)benzamide],< 1000 nM
8,CNc1nccc(-c2cccnc2Oc2ccc(NC(=O)Nc3cccc(Cl)c3)cc2C)n1 [N-(3-chlorophenyl)-N′-(3-methyl-4-((3-(2-(methylamino)-4-pyrimidinyl)-2-pyridinyl)oxy)phenyl)urea],< 1000 nM
9,CNc1nccc(-c2cccnc2Oc2ccc(NC(=O)Nc3cc(C(F)(F)F)ccc3OCCN3CCCC3)cc2C)n1 [N-(3-methyl-4-((3-(2-(methylamino)-4-pyrimidinyl)-2-pyridinyl)oxy)phenyl)-N′-(2-((2-(1-pyrrolidinyl)ethyl)oxy)-5-(trifluoromethyl)phenyl)urea],< 1000 nM
10,"CNc1ncnc(-c2cccnc2Oc2cc(C(=O)Nc3cc(C(C)(C)C)on3)ccc2C)n1 [N-(5-(1,1-dimethylethyl)-3-isoxazolyl)-4-methyl-3-((3-(4-(methylamino)-1,3,5-triazin-2-yl)-2-pyridinyl)oxy)benzamide]",< 1000 nM
11,CNc1nccc(-c2cccnc2Oc2ccc(NC(=O)Nc3cc(Cl)ccc3N(C)CCCN(C)C)cc2C)n1 [N-(5-chloro-2-((3-(dimethylamino)propyl)(methyl)amino)phenyl)-N′-(3-methyl-4-((3-(2-(methylamino)-4-pyrimidinyl)-2-pyridinyl)oxy)phenyl)urea],< 1000 nM
12,CNc1nccc(-c2cccnc2Oc2ccc(NC(=O)Nc3cc(Cl)ccc3N(C)[C@@H]3CCN(C)C3)cc2C)n1 [N-(5-chloro-2-(methyl((3R)-1-methyl-3-pyrrolidinyl)amino)phenyl)-N′-(3-methyl-4-((3-(2-(methylamino)-4-pyrimidinyl)-2-pyridinyl)oxy)phenyl)urea],< 1000 nM
13,CNc1nccc(-c2cccnc2Oc2ccc(NC(=O)Nc3cc(Cl)ccc3C)cc2C)n1 [N-(5-chloro-2-methylphenyl)-N′-(3-methyl-4-((3-(2-(methylamino)-4-pyrimidinyl)-2-pyridinyl)oxy)phenyl)urea],< 1000 nM
14,"COc1ccc(C2CCCCC2)cc1NC(=O)c1ccc(C)c(Oc2ncccc2-c2ncnc(NCCCCN(C)C)n2)c1 [N-(5-cyclohexyl-2-(methyloxy)phenyl)-3-((3-(4-((4-(dimethylamino)butyl)amino)-1,3,5-triazin-2-yl)-2-pyridinyl)oxy)-4-methylbenzamide]",< 1000 nM
